Measurements taken from ChEMBL document CHEMBL4020724, “Selective HDAC inhibitors with potent oral activity against leukemia and colorectal cancer: Design, structure-activity relationship and anti-tumor activity study” (Eur J Med Chem, 2017).
Activity calls are given as the source filed them. The calls are words filed in the database; no cut-off is given here.

Key:
[1] = Inhibition of class 1 HDAC in human HL60 cells using Boc-Ac-Lys-AMC as substrate incubated for 3 hrs followed by substrate addition measured after 3 hrs by fluorescence assay; assay type: cell-based; settings: HL-60, 3 h
Mus musculus [2] = experiment: Toxicity in BALB/c nude mouse xenografted with human U937 cells assessed as body weight loss at 50 mg/kg/day administered via oral gavage for 13 days; settings: in vivo, 312 h
Mus musculus [3] = experiment: Toxicity in BALB/c nude mouse xenografted with human HCT116 cells assessed as body weight at 50 mg/kg/day administered via oral gavage for 16 days (reference value: 19.91 +/- 1.26 g); assay type: organism-based; settings: in vivo, 384 h
Mus musculus [4] = experiment: Toxicity in BALB/c nude mouse xenografted with human U937 cells assessed as body weight at 50 mg/kg/day administered via oral gavage for 13 days (reference value: 25.39 +/- 1.18 g); assay type: organism-based; settings: in vivo, 312 h
cells = settings: Homo sapiens, ES-2, 48 h
Description: Antiproliferative activity against human ES2 cells after 48 hrs by MTT assay

HL-60 [5] = experiment: Induction of apoptosis in human HL60 cells assessed as increase in cleaved caspase-3 level at 5 uM after 48 hrs by Western blot analysis; assay type: functional, cell-based
U-937 [6] = experiment: Antitumor activity against human U937 cells xenografted in BALB/c nude mouse assessed as tumor growth inhibition at 50 mg/kg/day administered via oral gavage for 13 days measured every 3 days; assay type: functional; settings: U-937, po, read-out: TGI
HCT-116 [7] = experiment: Antitumor activity against human HCT116 cells xenografted in BALB/c nude mouse assessed as relative tumor increment ratio at 50 mg/kg/day administered via oral gavage for 16 days measured every 3 days; assay type: functional
HL-60 [8] = experiment: Induction of apoptosis in human HL60 cells assessed as increase in cleaved PARP level at 5 uM after 48 hrs by Western blot analysis; assay type: functional, cell-based
HL-60 [9] = experiment: Induction of apoptosis in human HL60 cells assessed as decrease in procaspase-3 level at 5 uM after 48 hrs by Western blot analysis; assay type: functional, cell-based
U-937 [10] = experiment: Antitumor activity against human U937 cells xenografted in BALB/c nude mouse assessed as relative tumor increment ratio at 50 mg/kg/day administered via oral gavage for 13 days measured every 3 days; assay type: functional
HCT-116 [11] = experiment: Antitumor activity against human HCT116 cells xenografted in BALB/c nude mouse assessed as tumor growth inhibition at 50 mg/kg/day administered via oral gavage for 16 days measured every 3 days; assay type: functional; settings: HCT-116, po, read-out: TGI

Q: For `Nc1ccccc1NC(=O)c1ccc(CNC(=O)OCc2cccnc2)cc1` [ENTINOSTAT], which IC50 [1] is on record?
A: The IC50 was 620 nM.

Q: What about the Activity (Mus musculus [2]) of the same compound?
A: The Activity was “Toxic”.

Q: And the Activity (Mus musculus [3])?
A: Its Activity is 18.87 g.

Q: And the Activity (Mus musculus [4])?
A: Its Activity is 19.77 g.

Q: And the IC50 (cells)?
A: Its IC50 is greater than 20000 nM.

Q: And the Activity (HL-60 [5])?
A: The Activity was “Active”.

Q: What about the inhibition in vivo at 50 mg/kg/day (U-937 [6]) of the same compound?
A: The inhibition in vivo at 50 mg/kg/day was 60%.

Q: And the T/C (HCT-116 [7])?
A: Its T/C is 46%.

Q: And the Activity (HL-60 [8])?
A: The Activity was “Active”.

Q: What about the Activity (HL-60 [9]) of the same compound?
A: The Activity was “Active”.

Q: And the T/C (U-937 [10])?
A: The T/C was 32%.

Q: And the inhibition in vivo at 50 mg/kg/day (HCT-116 [11])?
A: The inhibition in vivo at 50 mg/kg/day was 62%.
